One data set concerns oral peroxidase (OPO). Kind of data set: Oral peroxidase (OPO) activity in saliva, NBS-SCN assay. The note with it: for OPO activity in presence of aldehydes present in TS: 80 μM acrolein, 20 μM crotonaldehyde (FIG. 11). The data set is classed as biochemical, human.
Data set [1] relates to lymphocytes. Description: Lymphocyte survival, Trypan Blue exclusion assay. In kind it is cell-based, human. The note with it: for death rates at 80 minutes / lymphocyte survival rates after 20 minutes: both, human; for % survival of TS + saliva-treated lymphocytes, Mean: 1 mM GSH. On the procedure:
Saliva collection: Saliva was collected from healthy subjects, 3 males and 3 females ranging from 21-47 years of age, under non-stimulatory conditions in a quiet room during the morning between 8 am and noon. Saliva collection was performed at least 1 h after eating by spitting into a recipient for 10 minutes, as previously described (43). Following collection, saliva was immediately centrifuged at 800×g for 10 min at 4° C. to remove cells and cell debris and the resulting supernatant was used for biochemical analyses.
(§1) Lymphocyte isolation: Blood from 10 consenting, healthy, non-smoking subjects, 5 males and 5 females ranging from 18-55 years of age, was drawn into EDTA-containing vacutainers. Lymphocytes were isolated by Ficoll-Hypaque (Sigma) gradient centrifugation according to the manufacturer's instructions and lymphocytes were suspended at 10^7 cells/ml PBS (Beit-Ha'emek Industries, Israel), and used immediately in experiments.
(§2) A reproducible vacuum was created in the flask and upon application of vacuum for 5 s, 80-100 ml of TS from the lit cigarette was drawn into the flask. […] Saliva treatment of lymphocytes was performed by suspending these in PBS supplemented with 30% (v/v) saliva. Following treatment with the TS of 0.5 cigarettes, flasks were incubated at 37° C. for 20 min in a metabolic shaker and subjected to a further 4 treatments with TS, as described above.
Measurement of lymphocyte survival: Lymphocyte viability was assessed by Trypan Blue exclusion assay.

Data set [2] has as its system lymphocytes. Description: Western immunoblotting analysis of lymphocyte protein carbonylation. The data set is classed as cell-based, human.
Excerpt: Western immunoblotting analysis of protein carbonylation: Salivary proteins were separated by SDS-PAGE using a 10% gel and electro-blotted onto nitrocellulose membranes, as previously described (14). The Oxyblot Kit (Intergen Co, Purchase N.Y.) was used with anti-dinitrophenyhydrazine (DNPH) antibodies to label carbonylated proteins. Protein carbonylation levels were then visualized by reacting labelled blots with a secondary HRP-conjugated anti-rabbit antibody followed by ECL detection of secondarily labelled proteins, as previously described (14).
as §1
as §2, with “Treatment of lymphocytes with TS in the presence of saliva: Exposure of lymphocytes to TS was carried out by attaching a Time cigarette (capable of removing particles>[…] in diameter) in which the filter tip was removed to a Cambridge filter which was combined with a vacuum system to aspirate gas-phase TS inside sealed 250 ml flasks containing lymphocytes suspended in 12-15 ml PBS, as previously described (14, 15). A” for “A”
Western immunoblotting analysis of lymphocyte protein carbonylation: Lymphocytes were washed twice in PBS following treatment by centrifugation at 2,000 rpm for 2 minutes to remove saliva and other components of the incubation medium. Lymphocytes were then centrifuged at 14,000 rpm for 1 minute and lysed by sonication for 10 seconds in lysis buffer containing 20 mM Tris pH 7.4, 1 mM EGTA, 1 mM PMSF, 50 μM NaVO4 and 50 mM NaF. Lysates were centrifuged at 14,000 rpm for 1 minute and supernatants were harvested for analysis. Carbonylation analysis was performed as described above.

In the next data set the target is T1, MPO (Homo sapiens, UniProt P05164).
T1 construct: purchased
T1 sequence (P05164 49-745): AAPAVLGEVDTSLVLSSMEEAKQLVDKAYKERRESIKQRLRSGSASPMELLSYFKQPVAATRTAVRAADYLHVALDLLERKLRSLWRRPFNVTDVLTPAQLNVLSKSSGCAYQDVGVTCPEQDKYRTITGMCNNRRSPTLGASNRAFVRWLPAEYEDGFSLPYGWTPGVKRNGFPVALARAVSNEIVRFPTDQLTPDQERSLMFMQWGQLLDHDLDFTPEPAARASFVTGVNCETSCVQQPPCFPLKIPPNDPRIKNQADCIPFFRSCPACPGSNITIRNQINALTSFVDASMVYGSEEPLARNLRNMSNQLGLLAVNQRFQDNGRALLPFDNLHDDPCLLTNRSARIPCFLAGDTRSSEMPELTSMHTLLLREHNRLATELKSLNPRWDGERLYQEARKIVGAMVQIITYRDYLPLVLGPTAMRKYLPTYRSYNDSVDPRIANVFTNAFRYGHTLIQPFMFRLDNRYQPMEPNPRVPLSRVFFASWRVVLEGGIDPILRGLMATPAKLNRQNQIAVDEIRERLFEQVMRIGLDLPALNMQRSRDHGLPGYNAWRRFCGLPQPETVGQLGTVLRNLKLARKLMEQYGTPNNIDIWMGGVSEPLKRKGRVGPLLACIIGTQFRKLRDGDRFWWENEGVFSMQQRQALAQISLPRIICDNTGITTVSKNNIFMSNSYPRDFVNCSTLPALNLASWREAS
Description: Control MPO activity (commercial MPO) in presence of dapsone. In kind it is biochemical. The note with it: 150 μM dapsone. On the procedure: FIG. 7 is a data plot depicting the effect of increasing concentrations of dapsone (4-aminophenylsulfone) on OPO activity in TS-treated saliva. Abbreviations: NO.1, NO.2, NO.3, NO4 and NO.5 correspond to saliva from 5 different subjects and plasma corresponds to commercial MPO.
Analysis of OPO activity: OPO activity was measured according to the 2-nitrobenzoic-thiocyanate (NBS-SCN) assay, as previously described (20). Briefly, DTNB is reduced to NBS by addition of β-mercaptoethanol and decreases in NBS concentration by reaction with OSCN^−, a product of OPO, are monitored spectrophotometrically by measuring absorbance at 412 nm at pH 5.6 (18). One unit of enzyme activity was defined as the activity required to cleave 1 μmol of NBS/min at 22° C., using a molar extinction coefficient of 12,800 (20).
Thus, in order to determine which of the MPO or SPO activity components of OPO activity are lost as a result of exposure to TS, OPO activity in TS-treated saliva was measured in the presence of increasing concentrations of […] dapsone.

Where [3] appears, read: TS + saliva, 1 mM agent, 80 minutes (FIG. 19).

SMILES strings stand for the structures.

`C=CC=O` [acrolein]: the “OPO activity in presence of aldehydes present in TS” value in the data set on oral peroxidase (OPO) is “unaffected”. Moreover, the lymphocyte survival rate is 66.4% with lymphocytes [1] (acrolein with saliva (second of the two 'respectively' values, order presumed)) and 57.9% in the data set on lymphocytes [1] (acrolein without saliva (first of the two 'respectively' values, order presumed)). Also, in the data set on lymphocytes [1], the “death rates at 80 minutes” value is on record as 57.3%. The “lymphocyte survival rates after 20 minutes” value in the data set on lymphocytes [1] is 63.3%. The “lymphocyte protein carbonylation levels” value in the data set on lymphocytes [2] (80 μM acrolein + saliva vs acrolein alone, 20 min (FIG. 22)) is given as “did not enhance carbonylation levels”.
For the compound `Nc1ccc(S(=O)(=O)c2ccc(N)cc2)cc1` [dapsone, 4-aminophenylsulfone], the “Loss of OPO activity” value with oral peroxidase (OPO) (150 μM dapsone, TS-treated saliva (FIG. 7)) is on record as 60-85%. Further, the “loss of OPO activity in the presence or absence of agent” value in the data set on oral peroxidase (OPO) (150 μM dapsone, TS-treated saliva containing ~40% MPO (FIG. 8)) is reported as “similar”. The “control MPO activity” value at MPO is listed as “unaffected”.
For the compound `N#C[S-].[K+]` [KSCN, potassium thiocyanate], the “protection against TS-induced loss of OPO activity” value in the data set on oral peroxidase (OPO) is recorded as “significant protection against loss of OPO activity”.
Consider `CC(=O)N[C@@H](CS)C(=O)O` [NAC, N-acetylcysteine], for which the “effect on death rate of lymphocytes exposed to TS and saliva” value in the data set with lymphocytes [1] is “did not alter the death rate”.
With `N[C@@H](CCC(=O)N[C@@H](CS)C(=O)NCC(=O)O)C(=O)O` [GSH, L-γ-glutamyl-1-cysteine-glycine], the “loss of OPO activity in TS-treated saliva in the presence or absence of agent” value in the data set with oral peroxidase (OPO) (1 mM agent (FIG. 9)) is recorded as “similar”. Also, the “effect on death rate of lymphocytes exposed to TS and saliva” value in the data set with lymphocytes [1] is “partially prevented”. Further, the “% survival of TS + saliva-treated lymphocytes, Mean” value is 90.6% in the data set on lymphocytes [1] (20 minute treatment) and 28.8% in the data set with lymphocytes [1] (80 minute treatment). Moreover, the lymphocyte survival rate with lymphocytes [1] (GSH added in the presence of 20 μM crotonaldehyde, 20 minutes) is given as 82.3%; in the data set with lymphocytes [1] (GSH added in the presence of 20 μM crotonaldehyde, 80 minutes) it was 81.3%; with lymphocytes [1] (GSH added in the presence of 80 μM acrolein, 20 minutes), 93.3%; in the data set on lymphocytes [1] (GSH added in the presence of 80 μM acrolein, 80 minutes) it was 87.4%; with lymphocytes [1] (GSH added in the presence of 2 mM acetaldehyde, 20 minutes), 93.3%; in the data set with lymphocytes [1] (GSH added in the presence of 2 mM acetaldehyde, 80 minutes), 93.6%. Besides, the lymphocyte survival rate with lymphocytes [1] (TS + saliva, 1 mM agent, 20 minutes (FIG. 19)) turned out to be 93.4%; in the data set with lymphocytes [1] (setting [3]), 24.3%. For the same compound, the “protection assessed by lymphocyte protein carbonylation levels” value in the data set on lymphocytes [2] (TS + saliva, 1 mM antioxidant, 20 minutes (FIG. 20)) is “unique protection”. The “protein carbonylation levels in aldehyde-treated lymphocytes” value in the data set on lymphocytes [2] (aldehydes + 1 mM GSH, 20 min (FIG. 21)) is on record as “protection”.
Turning to `C/C=C/C=O` [crotonaldehyde], in the data set on oral peroxidase (OPO), the “OPO activity in presence of aldehydes present in TS” value is listed as “unaffected”. Also, in the data set on lymphocytes [1], the “death rates at 80 minutes” value is 75.3% and the “lymphocyte survival rates after 20 minutes” value was determined as 80.3%.
In the case of `[Cl][Fe]([Cl])[Cl]` [FeCl3], the “inhibition of OPO activity on exposure of saliva” value with oral peroxidase (OPO) (1 mM ascorbate or 100 μM FeCl3, 2 h (FIG. 10)) was “did not inhibit OPO activity”.
With `CC=O` [acetaldehyde], the “death rates at 80 minutes” value with lymphocytes [1] was 92.7%.
As for `CC(=O)N(O)CCCCCNC(=O)CCC(=O)N(O)CCCCCNC(=O)CCC(=O)N(O)CCCCCN` [deferoxamine], the lymphocyte survival rate in the data set with lymphocytes [1] (setting [3]) was determined as 23.7%.
Regarding `O=C1O[C@H]([C@@H](O)CO)C(O)=C1O` [ascorbate], the lymphocyte survival rate is 77% in the data set on lymphocytes [1] (ascorbate (1 mM) added to PBS containing iron as FeCl3 (90 μM), no saliva (FIG. 23, Column 8)) and 78% in the data set on lymphocytes [1] (ascorbate (1 mM) added to saliva-containing medium without TS, 20 min (FIG. 23, column 6)).
Consider `O=c1[nH]c(=O)c2[nH]c(=O)[nH]c2[nH]1` [uric acid], for which, in the data set on lymphocytes [2] (uric acid added to suspension medium instead of saliva, 10 or 100 μM, no TS (FIG. 18)), the “lymphocyte protein carbonylation levels” value is “reduced carbonylation levels”.
As for `C/C1=C2/[N-][C@H]([C@H](CC(N)=O)[C@@]2(C)CCC(=O)NC[C@@H](C)OP(=O)([O-])O[C@H]2[C@@H](O)[C@@H](n3cnc4cc(C)c(C)cc43)O[C@@H]2CO)[C@]2(C)N=C(/C(C)=C3N=C(/C=C4N=C1[C@@H](CCC(N)=O)C\4(C)C)[C@@H](CCC(N)=O)[C@]\3(C)CC(N)=O)[C@@H](CCC(N)=O)[C@]2(C)CC(N)=O.[Co+3].[OH-]` [OH—CO, hydroxocobalamin], the “prevention of KCN-associated loss of OPO activity” value in the data set on oral peroxidase (OPO) (1 mM OH—CO, saliva treated 2 min with 1 mM KCN (FIG. 15)) is “completely prevent”. In addition, the “prevention of loss of OPO activity in TS-treated saliva” value with oral peroxidase (OPO) (increasing amounts of OH—CO (0.5, 1, 2 mM, FIG. 14), 40 min after treatment with TS) was “prevent, to a significant extent, the loss of OPO activity”. In addition, in the data set on oral peroxidase (OPO) (preincubation of saliva with OH—CO), the “prevention of TS- and KCN-associated loss of OPO activity” value was “could prevent both TS- and KCN-associated loss of OPO activity”.
